Holding throughout (format): cell-based
Test [1] concerns the target T1, GHRHR L362A (Homo sapiens, UniProt Q02643, L362A).
T1 construct: GHRHR(23-423)-; HA signal peptide (replaces native signal M1-G22) (N); expressed in transfected cells; host or cells: HEK 293 T
In words: cAMP accumulation, L362A. The note with it: mean ± SEM, n ≥ 3. An excerpt: (§1) Fig. 2 Molecular recognition of GHRH by GHRHR and comparison of that with LA-PTH–PTH1R and GLP-1–GLP-1R. a Detailed interaction between GHRH and the TMD pocket of GHRHR with hydrogen bonds shown as dotted lines. b, c Pairwise comparison of GHRH bound to GHRHR with GLP-1 and LA-PTH in complex with their corresponding receptors, showing the relative positions of peptide ligands. Lime green, GHRHR; blue, GHRH; red, PTH1R and LA-PTH; purple, GLP-1R and GLP-1. d–f The effects of mutation in the ligand-binding pocket on cAMP accumulation. cAMP levels were measured in wild-type (WT) receptor and alanine mutants in ECL1, 2, and 3 (d), TM1, 2, and 3 (e), and TM5, 6, and 7 (f). cAMP signals were normalized to the maximum response of WT and concentration–response curves were analyzed using a three-parameter logistic equation. Data shown are means ± S.E.M. of at least three independent experiments (n = 3–5), conducted in triplicate. Source data are provided as a Source data file.
(§2) GHRH-stimulated cAMP accumulation was measured by a LANCE Ultra cAMP kit (PerkinElmer). […] After 1 h RT incubation, TR-FRET signals (excitation: 320 nm, emission: 615 and 665 nm) were measured by an EnVision (PerkinElmer).
A general note: Changes in cAMP serve as a functional read-out for many G protein-coupled receptors.

In test [2] the target is T2, GHRHR T213A (Homo sapiens, UniProt Q02643, T213A).
T2 construct: GHRHR(23-423)-; HA signal peptide (replaces native signal M1-G22) (N); expressed in transfected cells; host or cells: HEK 293T, pcDNA3.1, transient
The experiment in a line: cAMP accumulation, T213A. The note with it: mean ± SEM, n ≥ 3.
From the text: as §1, §2

For test [3], the target named is T3, GHRHR S209A (Homo sapiens, UniProt Q02643, S209A).
T3 construct: GHRHR(23-423)-; HA signal peptide (replaces native signal M1-G22) (N); expressed in transfected cells; host or cells: HEK 293T, pcDNA3.1, transient
In words: cAMP accumulation, S209A. The note with it: mean ± SEM, n ≥ 3.
From the text: as §1, §2

Test [4] has as its target T4, GHRHR L358A (Homo sapiens, UniProt Q02643, L358A).
T4 construct: GHRHR(23-423)-; HA signal peptide (replaces native signal M1-G22) (N); expressed in transfected cells; host or cells: HEK 293 T
In words: cAMP accumulation, L358A. The note with it: mean ± SEM, n ≥ 3.
From the text: as §1, §2

Test [5] addresses T5, GHRHR D350A (Homo sapiens, UniProt Q02643, D350A).
T5 construct: GHRHR(23-423)-; HA signal peptide (replaces native signal M1-G22) (N); expressed in transfected cells; host or cells: HEK 293 T
In words: cAMP accumulation, D350A. The note with it: mean ± SEM, n ≥ 3.
From the text: as §1, §2

Test [6] deals with T6, GHRHR I289A (Homo sapiens, UniProt Q02643, I289A).
T6 construct: GHRHR(23-423)-; HA signal peptide (replaces native signal M1-G22) (N); expressed in transfected cells; host or cells: HEK 293T, pcDNA3.1, transient
In words: cAMP accumulation, I289A. The note with it: mean ± SEM, n ≥ 3.
From the text: as §1, §2

For test [7], the target named is T7, GHRHR C195A (Homo sapiens, UniProt Q02643, C195A).
T7 construct: GHRHR(23-423)-; HA signal peptide (replaces native signal M1-G22) (N); expressed in transfected cells; host or cells: HEK 293T, pcDNA3.1, transient
The experiment in a line: cAMP accumulation, C195A. The note with it: mean ± SEM, n ≥ 3.
From the text: as §1, §2

In test [8] the target is T8, GHRHR K182A (Homo sapiens, UniProt Q02643, K182A).
T8 construct: GHRHR(23-423)-; HA signal peptide (replaces native signal M1-G22) (N); expressed in transfected cells; host or cells: HEK 293T, pcDNA3.1, transient
In words: cAMP accumulation, K182A. The note with it: mean ± SEM, n ≥ 3.
From the text: as §1, §2

Test [9] addresses T9, GHRHR L354A (Homo sapiens, UniProt Q02643, L354A).
T9 construct: GHRHR(23-423)-; HA signal peptide (replaces native signal M1-G22) (N); expressed in transfected cells; host or cells: HEK 293 T
In words: cAMP accumulation, L354A. The note with it: mean ± SEM, n ≥ 3.
From the text: as §1, §2

The target of test [10] is T10, GHRHR N346A (Homo sapiens, UniProt Q02643, N346A).
T10 construct: GHRHR(23-423)-; HA signal peptide (replaces native signal M1-G22) (N); expressed in transfected cells; host or cells: HEK 293T, pcDNA3.1, transient
The experiment in a line: cAMP accumulation, N346A. The note with it: mean ± SEM, n ≥ 3.
From the text: as §1, §2

Test [11] addresses T11, GHRHR(23-423) (WT) (Homo sapiens, UniProt Q02643).
T11 construct: 24 h after transfection with GHRHR(23-423), GHRHR(23-405), GHRHR(23-405)-LgBiT-2MBP, or HA-Flag-GHRHR (WT and mutants); HA signal peptide (replaces native signal M1-G22) (N); expressed in transfected cells; host or cells: HEK 293 T
T11 sequence (Q02643 23-423): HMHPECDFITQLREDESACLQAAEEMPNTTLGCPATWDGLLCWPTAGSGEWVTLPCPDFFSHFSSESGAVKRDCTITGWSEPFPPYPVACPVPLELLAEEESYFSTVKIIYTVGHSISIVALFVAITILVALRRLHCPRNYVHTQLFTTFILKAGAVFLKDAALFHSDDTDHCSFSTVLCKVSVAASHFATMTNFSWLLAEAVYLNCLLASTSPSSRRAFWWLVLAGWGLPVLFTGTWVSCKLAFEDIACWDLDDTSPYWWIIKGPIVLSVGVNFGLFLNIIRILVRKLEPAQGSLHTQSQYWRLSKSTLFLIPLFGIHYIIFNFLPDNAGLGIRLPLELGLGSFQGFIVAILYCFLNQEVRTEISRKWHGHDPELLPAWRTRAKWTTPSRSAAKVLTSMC
The experiment in a line: cAMP accumulation, construct GHRHR(23-423) (WT) (Supplementary Fig. 2b). The note with it: HEK 293T; mean ± SEM, n = 8-10. How it is done: GHRH-stimulated cAMP accumulation was measured by a LANCE Ultra cAMP kit (PerkinElmer). Briefly, 24 h after transfection with GHRHR(23-423), GHRHR(23-405), GHRHR(23-405)-LgBiT-2MBP, or HA-Flag-GHRHR (WT and mutants), HEK 293 T cells (3000/well in 384-well white plates, PerkinElmer) were digested by 0.2% (w/v) EDTA and 5 μL stimulation buffer (HBSS supplemented with 5 mM HEPES, 0.5 mM IBMX, and 0.1% (w/v) BSA, pH 7.4). Different concentrations (5 μL) of GHRH were then added and the stimulation lasted for 30 min at RT. The reaction was stopped by adding 5 μL Eu-cAMP tracer and 5 μL ULight-anti-cAMP. After 1 h RT incubation, TR-FRET signals (excitation: 320 nm, emission: 615 and 665 nm) were measured by an EnVision (PerkinElmer).
223 Supplementary Ta b l e 1. Effects of GHRH-mediated cAMP accumulation.
Receptor cAMP Cell surface expression Binding
pEC50 Emax (% WT) (% WT) pIC50 […]
225 to determine pEC50 and Emax values. pEC50 is the negative logarithm of the molar
226 concentration of agonist that induced half the maximal response. Cell surface […]
228 Flag antibody (Sigma-Aldrich, 1:300); Donkey anti-Mouse Alexa Fluor 488-
229 conjugated secondary antibody, (ThermoFisher Scientific, 1:1000)] on the […]
231 Binding data were analyzed using a three-parameter logistic equation to […]
234 determine statistical difference. *P<0.01; ND, not determined.

Test [12] concerns the target T12, GHRHR V179A (Homo sapiens, UniProt Q02643, V179A).
T12 construct: GHRHR(23-423)-; HA signal peptide (replaces native signal M1-G22) (N); expressed in transfected cells; host or cells: HEK 293T, pcDNA3.1, transient
The experiment in a line: cAMP accumulation, V179A. The note with it: mean ± SEM, n ≥ 3.
From the text: as §1, §2

This note sets out measurements from PMC7567103 (Nature Communications, 2020).

T5 sequence (Q02643 23-423 D350A): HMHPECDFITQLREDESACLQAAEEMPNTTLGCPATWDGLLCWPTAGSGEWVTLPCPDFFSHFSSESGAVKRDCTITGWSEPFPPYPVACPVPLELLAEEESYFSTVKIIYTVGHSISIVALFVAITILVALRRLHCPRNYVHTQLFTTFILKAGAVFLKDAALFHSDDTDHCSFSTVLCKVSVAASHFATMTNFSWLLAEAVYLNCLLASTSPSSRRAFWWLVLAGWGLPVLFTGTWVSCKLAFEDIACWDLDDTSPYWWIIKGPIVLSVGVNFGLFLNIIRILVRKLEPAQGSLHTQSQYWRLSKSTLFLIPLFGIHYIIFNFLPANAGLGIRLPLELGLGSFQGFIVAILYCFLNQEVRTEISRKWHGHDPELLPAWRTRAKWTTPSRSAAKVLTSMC
T1 sequence (Q02643 23-423 L362A): as the sequence (Q02643 23-423 D350A) above, with A328D, L340A counted along it
T3 sequence (Q02643 23-423 S209A): as the sequence (Q02643 23-423 D350A) above, with S187A, A328D counted along it
T10 sequence (Q02643 23-423 N346A): as the sequence (Q02643 23-423 D350A) above, with N324A, A328D counted along it
T6 sequence (Q02643 23-423 I289A): as the sequence (Q02643 23-423 D350A) above, with I267A, A328D counted along it
T4 sequence (Q02643 23-423 L358A): as the sequence (Q02643 23-423 D350A) above, with A328D, L336A counted along it
T2 sequence (Q02643 23-423 T213A): as the sequence (Q02643 23-423 D350A) above, with T191A, A328D counted along it
T12 sequence (Q02643 23-423 V179A): as the sequence (Q02643 23-423 D350A) above, with V157A, A328D counted along it
T7 sequence (Q02643 23-423 C195A): as the sequence (Q02643 23-423 D350A) above, with C173A, A328D counted along it
T9 sequence (Q02643 23-423 L354A): as the sequence (Q02643 23-423 D350A) above, with A328D, L332A counted along it
T8 sequence (Q02643 23-423 K182A): as the sequence (Q02643 23-423 D350A) above, with K160A, A328D counted along it

For `CC[C@H](C)[C@H](NC(=O)[C@H](C)NC(=O)[C@H](CC(=O)O)NC(=O)[C@H](C)NC(=O)[C@@H](N)Cc1ccc(O)cc1)C(=O)N[C@@H](Cc1ccccc1)C(=O)N[C@H](C(=O)N[C@@H](CC(N)=O)C(=O)N[C@@H](CO)C(=O)N[C@@H](Cc1ccc(O)cc1)C(=O)N[C@@H](CCCNC(=N)N)C(=O)N[C@@H](CCCCN)C(=O)N[C@H](C(=O)N[C@@H](CC(C)C)C(=O)NCC(=O)N[C@@H](CCC(N)=O)C(=O)N[C@@H](CC(C)C)C(=O)N[C@@H](CO)C(=O)N[C@@H](C)C(=O)N[C@@H](CCCNC(=N)N)C(=O)N[C@@H](CCCCN)C(=O)N[C@@H](CC(C)C)C(=O)N[C@@H](CC(C)C)C(=O)N[C@@H](CCC(N)=O)C(=O)N[C@@H](CC(=O)O)C(=O)N[C@H](C(=O)N[C@@H](CCSC)C(=O)N[C@@H](CO)C(=O)N[C@@H](CCCNC(=N)N)C(=O)N[C@@H](CCC(N)=O)C(=O)N[C@@H](CCC(N)=O)C(=O)NCC(=O)N[C@@H](CCC(=O)O)C(=O)N[C@@H](CO)C(=O)N[C@@H](CC(N)=O)C(=O)N[C@@H](CCC(N)=O)C(=O)N[C@@H](CCC(=O)O)C(=O)N[C@@H](CCCNC(=N)N)C(=O)NCC(=O)N[C@@H](C)C(=O)N[C@@H](CCCNC(=N)N)C(=O)N[C@@H](C)C(=O)N[C@@H](CCCNC(=N)N)C(=O)N[C@@H](CC(C)C)C(N)=O)[C@@H](C)CC)C(C)C)[C@@H](C)O` [GHRH, Growth hormone-releasing hormone], the EC50 in test [1] is 0.112 nM; in test [2], 0.447 nM; in test [3] it was 0.11 nM; in test [4], 1.05 nM; in [5] it was 148 nM; in test [6], 9.77 nM. Also, the EC50 is 21.4 nM in [7]; 39.8 nM in [8]; 0.182 nM in test [9]; 1.41 nM in [10]; 0.631 nM in test [11]; 0.288 nM in test [12]. Moreover, the Emax in test [1] amounted to 103.97±0.47 % WT; in [2], 91.48±4.55 % WT; in [3], 100.52±0.43 % WT; in test [4], 100.3±1.21 % WT; in test [5], 47.38±8.48 % WT; in test [6] it was 93.36±2.36 % WT. Also, the Emax in test [7] worked out at 95.22±1.05 % WT; in test [8], 100.02±1.40 % WT; in test [9] it was 98.79±1.84 % WT; in [10] it was 101.21±3.69 % WT; in test [11] it was 100 % WT; in [12], 101.24±3.06 % WT.

In general, EC50 refers to the concentration giving half of the maximal effect. A high value points to weaker potency.
